pIC50: −log10 of the molar value. Values belong to the compound of their own block, whether it stands above or below them.
How the values were obtained:
[1] = test system: human epidermoid carcinoma cell line-A431; experiment: cells; assay type: cell-based; conditions: for Percent Grown: A431, 72-hour exposure
Description: In this example, assays were performed to detect changes in cell proliferation based on the ability of viable cells to cause alamarBlue to change from non-fluorescent blue to a reduced, fluorescent red form. With the results obtained from the alamarBlue reaction, cell proliferation can be quantified and metabolic activity of viable cells can be examined. Test compounds including Morinda citrifolia leaf extract, leaf juice, and roast leaf were tested for their effects on the proliferation of human epidermoid carcinoma cell line-A431 at assay concentrations from 0.01 to 100 μg/ml or 0.0001% to 1% through serial 10-fold dilutions.
Morinda citrifolia leaf extract, leaf juice, and roast leaf were provided by Tahitian Noni International, Inc. for in vitro anti-tumor studies. The Morinda citrifolia compounds were dissolved in sterile distilled water and then diluted with sterile distilled water to obtain initial working solutions of 10000, 1000, 100, 10, and 1 μg/ml for the leaf extract and roast leaf, as well as 100, 10, 1, 0.1 and 0.01% for the leaf juice. In testing, 100-fold dilution was made in culture media to get final assay concentrations of 100, 10, 1, 0.1 and 0.01 μg/ml, and 1, 0.1, 0.01, 0.001 and 0.0001%, respectively.
The tumor cell line, A431 (human epidermoid carcinoma), obtained from American Type Culture Collection (ATCC CRL-1555), was incubated in an air atmosphere of 5% CO2 at 37° C. The culture medium was used with Dulbecco's Modified Eagle's medium, 90%; Fetal Bovine Serum, 10% and supplemented with 1% Antibiotic-Antimycotic.
The anti-proliferation for the test substances was evaluated. Aliquots of 100 µl of cell suspension (about 3×10^3/well) were placed in 96-well microtiter plates in an atmosphere of 5% CO2 at 37° C. […] Two test compounds, leaf extract and roast leaf, were evaluated at concentrations of […]. The other compound, leaf juice, was evaluated at concentrations of 1, 0.1, 0.01, 0.001 and 0.0001%. At the end of incubation, 20 µl of 90% alamarBlue reagent was added to each well for another 6-hour incubation before detection of cell viability by fluorescent intensity. Fluorescent intensity was measured using a Spectrafluor Plus plate reader with excitation at 530 nm and demission at 590 nm.
IC50, TGI, and LC50 values were then determined. […] TGI (Total Growth Inhibition) is the test compound concentration where the number or mass of treated cells at the end of the experiment was equal to that at time0. […] The measured results were calculated by the following formula: PG(%)=100×(Mean Ftest−Mean Ftime0)^/(Mean Fctr l−Mean Ftime0)
If (Mean Ftest−Mean Ftime0)^<0, then PG(%)−100×(Mean Ftest−Mean Ftime0)/(Mean Ftime0−Mean Fblank)
Where: PG=percent growth; Mean Ftime0=The average of 2 measured fluorescent intensities of reduced alamarBlue at the time just before exposure of cells to the test substance; Mean Ftest=The average of 2 measured fluorescent intensities of alamarBlue after 72-hour exposure of cells to the test substance; Mean Fctrl=The average of 2 measured fluorescent intensities of alamarBlue after 72-hour incubation without the test substance; and Mean Fblank=The average of 2 measured fluorescent intensities of alamarBlue in medium without cells after 72-hour incubation.
A decrease of 50% or more (≧50%) in fluorescent intensity relative to the vehicle-treated control indicated significant cell growth inhibition, cytostatic or cytotoxic activity, and a semi-quantitative IC50, TGI, and LC50 were then determined by nonlinear regression using GraphPad Prism (GraphPad Software, USA).

[2] = target: Adenosine A2A (Homo sapiens, UniProt P29274); experiment: bio-assay on Adenosine A2A; conditions: isolated from squeezed juice of fresh Morinda citrifolia leaf
Chain of Adenosine A2A (P29274 whole entry): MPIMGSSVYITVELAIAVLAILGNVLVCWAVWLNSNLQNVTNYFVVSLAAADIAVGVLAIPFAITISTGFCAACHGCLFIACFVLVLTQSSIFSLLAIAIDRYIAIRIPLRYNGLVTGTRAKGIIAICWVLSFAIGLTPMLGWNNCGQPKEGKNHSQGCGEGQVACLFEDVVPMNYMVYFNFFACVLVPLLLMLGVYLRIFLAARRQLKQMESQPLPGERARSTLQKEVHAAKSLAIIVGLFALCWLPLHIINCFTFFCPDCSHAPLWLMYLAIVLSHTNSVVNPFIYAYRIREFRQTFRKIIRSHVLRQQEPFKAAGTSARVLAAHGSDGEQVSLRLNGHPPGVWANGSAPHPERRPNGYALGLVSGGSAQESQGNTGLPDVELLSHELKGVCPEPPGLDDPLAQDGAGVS
Source text: Their structures have been determined by NMR techniques and mass spectrometry and they have been identified as Pyro-phorbide a, Pheoporbide a, Purpin 7, and Pheophorbide Phytolester. The isolation and characterization of the above referenced bioactive compounds provides a significant explanation for the anti-inflammatory and analgesic properties of extracts derived from the Morinda citrifolia plant, particularly from the leaf of the plant.

Compound: CO[C@@]12[C@H](COC(N)=O)C3=C(C(=O)C(C)=C(N)C3=O)N1C[C@@H]1N[C@@H]12 [Mitomycin]
Percent Grown ([1]; Concentration 0.001 (ttM)): 101 +/− 5%
Percent Grown ([1]; Concentration 0.01 (ttM)): 82 +/− 3%
Percent Grown ([1]; Concentration 0.1 (ttM)): 7 +/− 3%
Percent Grown ([1]; Concentration 1 (ttM)): 35 +/− 8%
Percent Grown ([1]; Concentration 10 (ttM)): 97 +/− 0%
pIC50 ([1]; Homo sapiens, A-431, Tumor, Skin (A431), semi-quantitative, nonlinear regression, read-out: IC50 (50% Inhibition Concentration)): 7.46
TGI (Total Growth Inhibition) ([1]; Tumor, Skin (A431), semi-quantitative, nonlinear regression): 190 nM
inhibitory activity on tumor cell growth ([1]; at <10 p.M, A431): Significant inhibitory activity

Compound: Pheophorbide Phytolester
bioactivity in bio-assay on Adenosine A2A [2]: significant bioactivity

Compound: Purpin 7
bioactivity in bio-assay on Adenosine A2A [2]: significant bioactivity

More lines, now with the values ahead:

bioactivity in bio-assay on Adenosine A2A [2]: significant bioactivity
Compound: Pheoporbide a

bioactivity in bio-assay on Adenosine A2A [2]: significant bioactivity
Compound: Pyro-phorbide a
